Like-named read-outs stand apart in the source and are kept apart here.
Assays:
[1] = test system: histamine-induced constriction of isolated tracheal smooth muscle of guinea pig; assay: Inhibition of the histamine-induced constriction of isolated tracheal smooth muscle of guinea pig; details: Cavia porcellus, 0.25 h, isolated guinea pig trachea, read-out: Inhibition of the histamine-induced constriction of isolated tracheal smooth muscle of guinea pig pd'2 (converted)
Experimental: I Study on the Effects Against Spasmogenic Mediators [modified method of J. C. […] The investigation on isolated organs were carried out as follows. OHF Lt/R9 guinea pigs of both sexes weighing 300 to 400 g each were anaesthetized by pentobarbital. Their trachea was removed and sectioned in the opposite side to the site of smooth muscle in longitudinal direction. Subsequently, a strip-like preparation was obtained by […] cutting. […] A rest load of 0.5 g was used. Several washings were carried out during the incubation period of 30 minutes. The change in the tension of the tracheal smooth muscle was followed by using an isometric Grass FT-03 type tensiometer sensor device. A washing was made following the cumulative dose series of the given mediator (e.g. histamine). After reaching the base line, by 15 minutes after administration of the given concentration of the inhibitory (antiasthmatic) substance to be tested, the next cumulative dose series of the mediator was administered. In the case of an inhibitory action, the strength of effect, following the second dose series of the mediator, was […] in comparison to that of the first (control) series. For characterization of strength of the competitive antagonistic effect the pA2 value was determined according to the method of […] A pd'2 value was calculated [J. M. Van Rossum: Arch. Int.

LD50 on mouse = details: in vivo
[2] = test system: dextran-induced rat paw edema; assay: Dextran-induced rat paw edema test; format: in vivo; details: 50 mg/kg (p.o.)
Experimental: 3) Dextran-induced rat paw edema test The method of S. Gourvaisier and R. Ducrot [Arch. Int. Pharmacodyn. Ther. 102, 33 (1955)] was employed. The method described for the carrageenin edema test was followed, except that the measurements were carried out 30, 60, 90, 120 and 180 minutes after induction of the inflammation.

LD50 on rat = details: in vivo, iv
[3] = test system: active local anaphylactic reaction; assay: Effect influencing the active local anaphylactic reaction on rat; format: in vivo, rat (female OFA); details: oral dose of 50 mg/kg, 30th minute after induction
Experimental: 1) The effect influencing the active local anaphylactic reaction was measured according to the method of M. Koltay [Arch. Allergy App. Immun. 71, 181 (1983)].
Female OFA rats weighing 160 to 180 g each were sensitized by bovine serum albumin (BSA) adsorbed to 50 μg of Al(OH)3 gel together with the simultaneous administration of Bordatella pertussis vaccine.
The anaphylactic reaction was elicited by injecting 100 μg of BSA into the right hind paw plant in the 14th day.
The measurements were carried out before and 30 minutes after eliciting the reaction. The animals were orally treated with the compound to be tested 1 hour before the injection of BSA. The results were expressed as percentage inhibition compared to the control group (average %±S.E.M.).

[4] = test system: carrageenin-induced rat paw edema; assay: Carrageenin-induced rat paw edema test; format: in vivo, rat (female CFY); details: Rattus norvegicus, po, 50 mg/kg (p.o.), read-out: Percentage of the protective effect
Experimental: Proc. Soc. Exp. Med. 111, 544 (1962)]. Female CFY rats weighing 100 to 120 g each were used after starvation for 24 hours. The inflammation was induced by injecting 0.1 ml of 1% carrageenin solution into the right hind paw plant. The severity of inflammation was determined by using an Ugo-Basile type plethysmometer. The measurement was carried out before and 1.5, 3 and 4.5 hours after induction of the inflammation. The animals were orally treated with the substance to be tested 1 hour before administration of carrageenin. The effect was expressed as percentage inhibition related to the control group.

CCOc1cc2c(cc1OCC)C(=C(C#N)SCC(O)CN1CCOCC1)NCC2 (stereo not shown) [Example 18, 2-(6,7-diethoxy-1,2,3,4-tetrahydro-1-isoquinolinylidene)-2-[2-hydroxy-3-(4-morpholinyl)propyl]mercaptoacetonitrile]
IC50 [1]: 123 nM | LD50 (LD50 on mouse; iv, female mouse, read-out: LD50 i.v.): 150 mg/kg | LD50 (LD50 on mouse; iv, male mouse, read-out: LD50 i.v.): 166 mg/kg | LD50 (LD50 on mouse; po, female mouse, read-out: LD50 p.o.): 1030 mg/kg | LD50 (LD50 on mouse; po, male mouse, read-out: LD50 p.o.): 1200 mg/kg | Percentage of inhibition ([2]; 30 minutes): 29.8% | Percentage of inhibition ([2]; 60 minutes): 38.7% | Percentage of inhibition ([2]; 90 minutes): 30.4% | Percentage of inhibition ([2]; 120 minutes): 26.3% | Percentage of inhibition ([2]; 180 minutes): 28.4% | LD50 (LD50 on rat; female rat): 133 mg/kg | LD50 (LD50 on rat; male rat): 91.4 mg/kg | Percentage of inhibition of the active local anaphylactic reaction [3]: -31% | change in vivo at 50 mg/kg ([4]; 1.5 hours): -35.8% | change in vivo at 50 mg/kg ([4]; 3 hours): -29.3% | change in vivo at 50 mg/kg ([4]; 4.5 hours): -28.4%
